# Measured values from the kinase profiling compilation of Christmann-Franck et al. (2016).
# pIC50: −log10 of the molar value.
# Columns and labels:
# Assay in all cases: SelectScreen, TR FRET
# PIK3C2A (human) = PIK3C2A (human) (UniProt O00443)
# PIK3C2B (human) = PIK3C2B (human) (UniProt O00750)
# MTOR (human) = MTOR (human) (UniProt P42345)
# PI4KA (human) = PI4KA (human) (UniProt P42356)
# Sequence of PIK3C2A (human) (O00443 whole entry, looked up): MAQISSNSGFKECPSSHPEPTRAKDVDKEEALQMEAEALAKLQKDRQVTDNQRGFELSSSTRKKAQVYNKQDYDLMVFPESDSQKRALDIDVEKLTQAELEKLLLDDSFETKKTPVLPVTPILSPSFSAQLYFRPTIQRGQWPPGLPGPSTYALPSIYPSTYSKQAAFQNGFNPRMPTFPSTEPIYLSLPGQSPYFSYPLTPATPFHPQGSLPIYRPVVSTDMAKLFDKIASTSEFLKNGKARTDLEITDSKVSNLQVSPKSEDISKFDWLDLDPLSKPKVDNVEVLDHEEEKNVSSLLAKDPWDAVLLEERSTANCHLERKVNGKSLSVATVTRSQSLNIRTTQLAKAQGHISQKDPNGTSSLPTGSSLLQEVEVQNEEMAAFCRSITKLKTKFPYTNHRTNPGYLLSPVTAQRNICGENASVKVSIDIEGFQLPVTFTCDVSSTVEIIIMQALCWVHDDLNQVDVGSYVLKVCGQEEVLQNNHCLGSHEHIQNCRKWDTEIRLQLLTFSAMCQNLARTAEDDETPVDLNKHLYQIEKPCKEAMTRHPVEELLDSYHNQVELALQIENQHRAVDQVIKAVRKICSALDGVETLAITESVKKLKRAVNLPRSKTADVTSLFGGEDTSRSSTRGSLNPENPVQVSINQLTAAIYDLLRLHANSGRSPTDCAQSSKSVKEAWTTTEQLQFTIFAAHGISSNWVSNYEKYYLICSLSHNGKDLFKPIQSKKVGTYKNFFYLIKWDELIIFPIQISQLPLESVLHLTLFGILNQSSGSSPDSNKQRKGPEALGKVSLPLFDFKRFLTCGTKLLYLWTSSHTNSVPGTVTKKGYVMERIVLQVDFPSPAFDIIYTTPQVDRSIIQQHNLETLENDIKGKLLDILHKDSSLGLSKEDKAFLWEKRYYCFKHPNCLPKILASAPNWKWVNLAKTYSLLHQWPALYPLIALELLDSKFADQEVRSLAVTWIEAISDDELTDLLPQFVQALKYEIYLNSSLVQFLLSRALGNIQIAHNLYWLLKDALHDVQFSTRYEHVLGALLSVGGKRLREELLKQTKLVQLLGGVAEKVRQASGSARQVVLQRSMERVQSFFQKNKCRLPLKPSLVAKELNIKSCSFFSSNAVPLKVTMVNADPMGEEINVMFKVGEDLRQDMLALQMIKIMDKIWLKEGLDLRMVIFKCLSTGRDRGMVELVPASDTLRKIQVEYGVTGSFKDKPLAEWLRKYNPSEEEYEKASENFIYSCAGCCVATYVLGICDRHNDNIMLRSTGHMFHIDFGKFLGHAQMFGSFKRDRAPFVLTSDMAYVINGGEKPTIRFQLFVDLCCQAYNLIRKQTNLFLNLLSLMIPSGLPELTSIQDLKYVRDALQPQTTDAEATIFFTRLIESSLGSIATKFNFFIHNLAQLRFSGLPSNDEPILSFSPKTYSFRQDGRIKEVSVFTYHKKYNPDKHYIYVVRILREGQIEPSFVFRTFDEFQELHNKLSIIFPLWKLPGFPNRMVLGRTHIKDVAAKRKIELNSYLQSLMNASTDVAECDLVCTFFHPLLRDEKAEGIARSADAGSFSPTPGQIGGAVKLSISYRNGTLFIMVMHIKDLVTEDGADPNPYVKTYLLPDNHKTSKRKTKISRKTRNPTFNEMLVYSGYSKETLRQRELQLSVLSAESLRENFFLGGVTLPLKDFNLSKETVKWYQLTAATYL
# Sequence of PIK3C2B (human) (O00750 whole entry, looked up): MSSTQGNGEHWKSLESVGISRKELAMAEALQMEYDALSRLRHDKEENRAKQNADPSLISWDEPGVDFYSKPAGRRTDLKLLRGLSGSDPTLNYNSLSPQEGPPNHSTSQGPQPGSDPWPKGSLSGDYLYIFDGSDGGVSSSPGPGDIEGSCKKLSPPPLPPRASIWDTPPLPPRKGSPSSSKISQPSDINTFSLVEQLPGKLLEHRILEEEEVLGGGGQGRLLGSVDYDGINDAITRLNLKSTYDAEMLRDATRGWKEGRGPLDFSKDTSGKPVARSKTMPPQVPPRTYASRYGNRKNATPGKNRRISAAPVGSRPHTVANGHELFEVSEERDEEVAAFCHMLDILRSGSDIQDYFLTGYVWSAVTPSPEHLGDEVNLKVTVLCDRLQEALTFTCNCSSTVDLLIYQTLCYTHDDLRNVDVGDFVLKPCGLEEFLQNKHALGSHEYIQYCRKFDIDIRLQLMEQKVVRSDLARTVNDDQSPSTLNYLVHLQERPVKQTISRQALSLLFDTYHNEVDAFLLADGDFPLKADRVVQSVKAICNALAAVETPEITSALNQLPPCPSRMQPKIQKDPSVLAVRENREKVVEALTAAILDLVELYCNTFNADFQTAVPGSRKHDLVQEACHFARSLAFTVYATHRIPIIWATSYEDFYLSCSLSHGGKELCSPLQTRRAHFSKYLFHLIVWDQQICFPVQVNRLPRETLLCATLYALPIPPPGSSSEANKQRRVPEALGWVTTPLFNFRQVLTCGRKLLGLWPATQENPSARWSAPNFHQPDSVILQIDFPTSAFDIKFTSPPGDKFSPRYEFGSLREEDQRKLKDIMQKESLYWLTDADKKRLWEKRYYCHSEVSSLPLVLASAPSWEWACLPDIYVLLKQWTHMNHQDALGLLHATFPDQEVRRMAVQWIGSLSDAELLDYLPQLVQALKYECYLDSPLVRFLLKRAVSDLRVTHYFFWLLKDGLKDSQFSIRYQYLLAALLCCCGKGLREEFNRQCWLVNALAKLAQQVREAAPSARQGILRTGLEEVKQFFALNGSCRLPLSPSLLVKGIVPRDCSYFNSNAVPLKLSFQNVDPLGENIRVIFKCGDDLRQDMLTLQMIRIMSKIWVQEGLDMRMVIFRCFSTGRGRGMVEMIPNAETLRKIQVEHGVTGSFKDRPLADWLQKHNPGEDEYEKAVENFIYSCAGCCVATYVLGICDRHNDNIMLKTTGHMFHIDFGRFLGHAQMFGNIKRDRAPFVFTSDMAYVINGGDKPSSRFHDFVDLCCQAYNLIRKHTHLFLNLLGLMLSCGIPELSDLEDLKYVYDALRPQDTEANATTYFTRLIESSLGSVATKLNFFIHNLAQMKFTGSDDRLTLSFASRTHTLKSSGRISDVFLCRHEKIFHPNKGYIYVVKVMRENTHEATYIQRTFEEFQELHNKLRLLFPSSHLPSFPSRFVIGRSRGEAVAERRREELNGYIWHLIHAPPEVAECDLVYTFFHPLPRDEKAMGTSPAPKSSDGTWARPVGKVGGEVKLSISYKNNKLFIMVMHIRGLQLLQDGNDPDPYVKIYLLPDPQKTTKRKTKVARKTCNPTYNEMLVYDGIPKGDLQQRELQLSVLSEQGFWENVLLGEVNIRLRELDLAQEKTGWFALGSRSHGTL
structure (smiles),measurement,setting,value
Cc1cc([C@@H](C)Nc2ccccc2C(=O)O)c2nc(N3CCOCC3)cc(=O)n2c1,pIC50,PIK3C2A (human),< 6.00
same,pIC50,PIK3C2B (human),7.27
same,pIC50,MTOR (human),5.41
same,pIC50,PI4KA (human),5.05
